Assay [1] has as its target T1, sweet taste substance receptor protein (hTAS1R2 and hTAS1R3) (Homo sapiens, UniProt Q7RTX0+Q8TE23).
T1 construct: HA (N); expressed in transfected cells
T1 sequence (Q8TE23 20-839): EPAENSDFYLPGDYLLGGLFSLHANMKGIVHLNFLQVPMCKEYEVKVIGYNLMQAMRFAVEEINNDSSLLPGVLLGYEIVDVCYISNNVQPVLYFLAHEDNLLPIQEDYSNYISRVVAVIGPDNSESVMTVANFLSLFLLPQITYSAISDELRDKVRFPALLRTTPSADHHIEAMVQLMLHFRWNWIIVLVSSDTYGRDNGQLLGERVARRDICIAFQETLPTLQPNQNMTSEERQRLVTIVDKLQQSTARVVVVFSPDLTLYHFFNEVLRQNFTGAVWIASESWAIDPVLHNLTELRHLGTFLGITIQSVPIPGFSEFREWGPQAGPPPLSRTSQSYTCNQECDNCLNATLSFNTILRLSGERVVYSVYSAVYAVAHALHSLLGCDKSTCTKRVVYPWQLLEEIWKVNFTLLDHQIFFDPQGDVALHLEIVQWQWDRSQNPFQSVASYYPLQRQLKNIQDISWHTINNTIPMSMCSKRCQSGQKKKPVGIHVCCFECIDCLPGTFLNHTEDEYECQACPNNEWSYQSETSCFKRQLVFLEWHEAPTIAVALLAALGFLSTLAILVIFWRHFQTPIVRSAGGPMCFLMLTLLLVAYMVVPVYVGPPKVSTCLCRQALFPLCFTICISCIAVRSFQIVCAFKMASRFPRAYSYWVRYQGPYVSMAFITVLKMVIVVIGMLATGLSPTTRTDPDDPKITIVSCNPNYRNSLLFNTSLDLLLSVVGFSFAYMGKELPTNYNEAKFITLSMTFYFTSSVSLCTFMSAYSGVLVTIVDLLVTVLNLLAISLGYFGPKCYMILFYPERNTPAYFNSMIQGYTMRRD
T1 sequence (Q7RTX0 21-852): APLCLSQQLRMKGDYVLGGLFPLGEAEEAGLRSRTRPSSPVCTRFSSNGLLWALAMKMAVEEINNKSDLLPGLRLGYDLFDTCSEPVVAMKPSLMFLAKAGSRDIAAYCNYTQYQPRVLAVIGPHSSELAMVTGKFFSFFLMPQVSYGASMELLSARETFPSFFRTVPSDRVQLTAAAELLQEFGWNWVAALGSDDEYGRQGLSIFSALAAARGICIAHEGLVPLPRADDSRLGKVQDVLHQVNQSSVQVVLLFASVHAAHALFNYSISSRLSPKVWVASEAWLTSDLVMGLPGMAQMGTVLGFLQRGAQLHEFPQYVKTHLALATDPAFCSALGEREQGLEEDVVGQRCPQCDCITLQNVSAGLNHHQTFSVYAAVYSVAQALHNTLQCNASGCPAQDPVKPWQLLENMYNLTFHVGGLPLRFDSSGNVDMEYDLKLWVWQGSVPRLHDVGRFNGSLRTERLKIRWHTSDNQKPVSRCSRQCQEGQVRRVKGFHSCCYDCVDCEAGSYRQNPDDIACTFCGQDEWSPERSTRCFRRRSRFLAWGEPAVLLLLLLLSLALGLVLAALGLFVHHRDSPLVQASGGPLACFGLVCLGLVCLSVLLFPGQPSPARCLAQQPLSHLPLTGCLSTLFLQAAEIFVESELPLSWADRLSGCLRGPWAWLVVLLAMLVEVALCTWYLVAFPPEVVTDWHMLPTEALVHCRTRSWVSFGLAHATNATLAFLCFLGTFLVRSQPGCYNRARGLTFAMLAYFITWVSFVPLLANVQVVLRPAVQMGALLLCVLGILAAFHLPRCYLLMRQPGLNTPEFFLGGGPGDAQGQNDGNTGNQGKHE
As to the kind of experiment: nanovesicle based field effect transistor taste sensor, real-time source-drain current / conductance. Type of assay: biochemical. The settings on record: for signal change: 100 mM added.

Assay [2] concerns the target T1, sweet taste substance receptor protein (hTAS1R2 and hTAS1R3). The description is as above. It is filed as biochemical. The note with it: for signal generating from the taste sensor (sensitivity ΔG/G0): FIG. 3C; for fit of sensor signals to the hill equation model: FIG. 4C. On the procedure:
A sweet taste substance (Sigma Aldrich, USA) with a 1 mM concentration was dissolved into PBS (phosphate buffered saline; Gibco, USA) containing 2 mM CaCl2 therein. The resulting solution was sequentially diluted 1/10 times to acquire a diluent. The diluent was exposed to the nanovesicle based field effect transistor manufactured in the embodiment 2. A current between the source electrode and drain electrode was measured in a real time manner to check a reaction magnitude. A sensitivity ΔG/G0 of a sweet taste substance relative to sucrose in the nanovesicle based field effect transistor was measured in a real time manner.

For assay [3], the target named is T2, nanovesicle including TAS1R2 and TAS1R3 (Homo sapiens, UniProt Q7RTX0+Q8TE23).
T2 construct: HA (N); expressed in transfected cells
T2 sequence (Q8TE23 20-839): T1 sequence (Q8TE23 20-839)
T2 sequence (Q7RTX0 21-852): T1 sequence (Q7RTX0 21-852)
As to the kind of experiment: Ca2+ dependent fluorescence signal in nanovesicle separated from transformed HEK-293 cell line. The settings on record: 10 mM sucrose added, FIG. 2F. Type of assay: biochemical. How it is done:
(§1) A signal transfer via a sweet taste substance of each of the nanovesicle and HEK-293 cell was checked wherein the HEK-293 cell has the expressed heterodimeric receptor including the hTAS1R2 and hTAS1R3 manufactured in the embodiment 1, and the nanovesicle is separated from the HEK-293 cell.
(§2) For this, the transformed HEK-293 cell line was incubated for three or more days. Then, 5 μm Fura 2-AM (acetoxymethyl)(calcium indicator, Invitrogen) was loaded on the cells in an imaging buffer solution (NaCl 140 mM, KCl 5 mM, MgCl2 1 mM, CaCl2 2 mM, HEPES 10 mM, Glucose 10 mM, 0.1% Pluronic F-127, pH 7.4). A non-specific esterase residing in the cell performs hydrolysis for an AM ester group to be changed into a form sensitive to Ca^2+ ions. […]
(§3) After three times cleaning using respective solutions, a ligand and ATP (100 uM) for a Ca^2+ dependent fluorescence signal was injected thereto, and, dual stimulations (340 nm, and 380 nm) were applied thereto. Thereafter, a fluorescence signal due to Ca^2+ at 510 nm was measured using a spectrofluorophotometer. The fluorescence signal was obtained at 2 seconds intervals. A final result was shown as a ratio between fluorescence strengths resulting from the dual stimulations.

The target in assay [4] is T3, heterodimeric receptor including the hTAS1R2 and hTAS1R3 (Homo sapiens, UniProt Q7RTX0+Q8TE23).
T3 construct: HA (N); expressed in transfected cells
T3 sequence (Q8TE23 20-839): T1 sequence (Q8TE23 20-839)
T3 sequence (Q7RTX0 21-852): T1 sequence (Q7RTX0 21-852)
As to the kind of experiment: Ca2+ dependent fluorescence signal in transformed HEK-293 cell line. Type of assay: cell-based. The settings on record: 10 mM sucrose added, Fura 2-AM, ratio of 340/380 nm stimulation, emission 510 nm, FIG. 2C. On the procedure: as §1, §2, §3

Each structure is given as a SMILES string. Peptide text beside a SMILES is read from it.

On to `OC[C@H]1O[C@@H](O[C@H]2[C@H](O)[C@@H](O)[C@H](O)O[C@@H]2CO)[C@H](O)[C@@H](O)[C@@H]1O` [cellobios], for which the signal change entry in assay [1] (FIG. 4B) is listed as “no signal change”.
Take `OC[C@H]1O[C@@](CO)(O[C@H]2O[C@H](CO)[C@@H](O)[C@H](O)[C@H]2O)[C@@H](O)[C@@H]1O` [sucrose]: the results for the “signal generating from the taste sensor (sensitivity ΔG/G0)” value in assay [2] (100 uM concentration) and in assay [2] (500 uM concentration) were “decreases” and “rapidly decreases”, respectively. Moreover, the “fit of sensor signals to the hill equation model” value (from here on “fit of sensor signals”) in assay [2] is “comply with the hill equation model”. Further, the fluorescence emission strength result in assay [3] and in assay [4] was “relatively increases” in each case. In assay [1] (500 uM added, FIG. 4B), the reaction magnitude decrease entry was “about 5%”. In assay [1] (1 mM concentration, contained in coffee and Darjeeling tea, FIG. 4D), the “detection in real samples” value is recorded as “may be detected”.
With `O=C[C@H](O)[C@@H](O)[C@H](O)[C@H](O)C(=O)O` [D-glucuronic acid], the signal change entry in assay [1] (FIG. 4B) was “no signal change”.
In the case of `O=C(CO)[C@@H](O)[C@H](O)[C@H](O)CO` [fructose], in assay [2], the “fit of sensor signals” value is listed as “comply with the hill equation model”.
In the case of `COC(=O)[C@H](Cc1ccccc1)NC(=O)[C@@H](N)CC(=O)O` [aspartame] (H-Asp-Phe-OMe), the “fit of sensor signals” value in assay [2] is listed as “comply with the hill equation model”. The “sensitivity as a working substance relative to sucrose” value in assay [2] (compared with sucrose) is reported as “more sensitive”.

The values above are taken from US20250264461A1, “NANOVESICLE COMPRISING HETERODIMERIC G-PROTEIN COUPLED RECEPTOR, METHOD FOR PREPARING NANOVESICLE, FIELD EFFECT TRANSISTOR-BASED TASTE SENSOR COMPRISING NANOVESICLE, AND METHOD FOR MANUFACTURING TASTE SENSOR” (Seoul National University R&DB Foundation, priority 2013, published 2025).
